Earlier results in patent US7579489B2, “Processes for the preparation and purification of hydroxymethylfuraldehyde and derivatives” (Archer-Daniels-Midland Company, priority 2004, dated 2009).

Conditions: water/octanol; values taken from Hansch & Leo (1979) and Leo, Hansch & Elkins (1971)

| SMILES | Log P |
| --- | --- |
| CCC(C)=O [2-Butanone] | 0.29 |
| CCCCCC(C)=O [2-Heptanone] | 1.83 |
| CCCC(C)=O [2-Pentanone] | 0.91 |
| CCCCOC(C)=O [Butyl acetate] | 1.71 |
| ClC(Cl)Cl [Chloroform] | 2.24 |
| C1COCCO1 [Dioxane] | −0.27 |
| CCOC(C)=O [Ethyl acetate] | 0.66 |
| NC=O [Formamide] | −1.51 |
| CC(=O)CC(C)C [Methyl isobutyl ketone] | 1.32 |
